Converted amounts (≈) assume the structure as drawn. Bounds are passed on as bounds.

Data set [1] in a line: Kinetic solubility of compound by LYSA. The settings on record: read-out: Kinetic_solubility. It counts as physicochemical.
Data set [2] can be described thus: Clearance in Wistar/Han rat at 0.5 mg/kg, iv administered as single bolus dose. It counts as ADME, organism-based. The settings on record: in vivo.
A short description of data set [3]: AUC (0 to last) in C57BL/6J mouse at 5 mg/kg, po by LC/MS/MS analysis. It counts as ADME, organism-based. On the set-up: dose 5 mg/kg, time 0 - last, route oral. The settings on record: in vivo.
A short description of data set [4]: Volume of distribution at steady state in C57BL/6J mouse at 1 mg/kg, iv by LC/MS/MS analysis. It is filed as ADME, organism-based. The settings on record: in vivo, read-out: Vdss.
Data set [5] in a line: Clearance in C57BL/6J mouse at 1 mg/kg, iv by LC/MS/MS analysis. It counts as ADME, organism-based. The settings on record: in vivo.
Data set [6] can be described thus: AUC (0 to last) in C57BL/6J mouse at 50 mg/kg, po by LC/MS/MS analysis. It counts as ADME, organism-based. Details: dose 50 mg/kg, time 0 - last, route oral. The settings on record: in vivo.
The nature of data set [7]: Oral bioavailability in C57BL/6J mouse at 5 mg/kg by LC/MS/MS analysis. It counts as ADME, organism-based. The settings on record: in vivo.
Data set [8] is described as follows: Cmax in C57BL/6J mouse at 5 mg/kg, po by LC/MS/MS analysis. It is filed as ADME, organism-based. Details: dose 5 mg/kg, route oral. The settings on record: in vivo.
The nature of data set [9]: Oral bioavailability in C57BL/6J mouse at 50 mg/kg by LC/MS/MS analysis. The settings on record: in vivo. It counts as ADME, organism-based.
Data set [10] can be described thus: Tmax in C57BL/6J mouse at 50 mg/kg, po by LC/MS/MS analysis. It is filed as ADME, organism-based. The settings on record: in vivo.
A short description of data set [11]: Solubility of compound in fasted-state simulated intestinal fluid. It counts as ADME.
Data set [12] in a line: Solubility of compound in fed-state simulated intestinal fluid. It counts as ADME.
A short description of data set [13]: Cmax in C57BL/6J mouse at 50 mg/kg, po by LC/MS/MS analysis. It counts as ADME, organism-based. On the set-up: dose 50 mg/kg, route oral. The settings on record: in vivo.
Data set [14] can be described thus: AUC (0 to last) in C57BL/6J mouse at 1 mg/kg, iv by LC/MS/MS analysis. The settings on record: in vivo. It counts as ADME, organism-based. Details: dose 1 mg/kg, route intravenous, time 0 - last.
The nature of data set [15]: Tmax in C57BL/6J mouse at 5 mg/kg, po by LC/MS/MS analysis. It counts as ADME, organism-based. The settings on record: in vivo.
The nature of data set [16]: Clearance in Wistar/Han rat at 1 mg/kg, iv administered as single bolus dose. It is filed as ADME, organism-based. The settings on record: in vivo.

On to `O=C(C1COC1)N1CCC(C2Cc3[nH]c(=O)c4ccccc4c3CO2)CC1` (racemic), for which the solubility kinetic in [1] was 13 µg/mL (≈ 35.3 µM).
Take `CS(=O)(=O)N1CCC(C2Cc3[nH]c(=O)c4ccccc4c3CO2)C1` (racemic): the solubility kinetic in data set [1] was found to be 28 µg/mL (≈ 80.4 µM). In data set [2], this compound gave a clearance of 47 mL/min/kg.
Consider `Cc1cccc2c(=O)[nH]c3c(c12)COC(C(C)(C)CO)C3` (racemic), for which the AUC(0-t) in data set [3] came out at 1400 ng·h/mL; in data set [6], 27000 ng·h/mL; in [14], 600 ng·h/mL. Besides, in [4], the Vd stood at 1.5 L/kg. For the same compound, the clearance came out at 28 mL/min/kg in data set [5] and 25 mL/min/kg in data set [16]. The solubility kinetic in data set [1] was found to be 4 µg/mL (≈ 13.9 µM). Further, the bioavailability is 49% in [7] and 92% in data set [9]. Moreover, the Cmax in data set [8] was 1600 ng/mL; in data set [13] it was 14000 ng/mL. Further, the Tmax in [10] and in data set [15] was 15 min throughout. Moreover, the solubility in [11] was 50 µg/mL (≈ 174 µM); in data set [12], 143 µg/mL (≈ 498 µM).
Consider `CC(C)C1Cc2[nH]c(=O)c3cccnc3c2CO1` (racemic), for which the solubility kinetic in data set [1] stood at 13 µg/mL (≈ 53.2 µM). The compound further registered a clearance in data set [2] of 10 mL/min/kg.
Take `CC(C)(CO)C1Cc2[nH]c(=O)c3ccccc3c2CO1` (racemic): the solubility kinetic in data set [1] was 66 µg/mL (≈ 241 µM).
For `CC(C)(C)C1Cc2[nH]c(=O)c3ccccc3c2CO1` (racemic), the solubility kinetic in [1] is < 1 µg/mL. In [2], this compound registered a clearance of 2 mL/min/kg.
The like results for `Cc1cccc2c(=O)[nH]c3c(c12)COC(C(C)C)C3` (racemic) were, in that order, < 1 µg/mL and 20 mL/min/kg.
The matching figures for `CC(C)C1Cc2[nH]c(=O)c3ccccc3c2CO1` (racemic): 5 µg/mL (≈ 20.6 µM) and 37 mL/min/kg.

Source of the values: ChEMBL document CHEMBL3734697, “Fragment-Based Drug Design of Novel Pyranopyridones as Cell Active and Orally Bioavailable Tankyrase Inhibitors” (ACS Med Chem Lett, 2015).
